Patent publication US8137718B2, “Probiotic infant products” (Mead Johnson Nutrition Company, priority 2008, dated 2012)

Tested on: B. longum AH1205
Assay: Minimum inhibitory concentration (MIC) of antibiotics for the B. longum strain
Format: cell-based, Bifidobacterium longum
Conditions: against the B. longum strain AH1205
Description: Antibiotic sensitivity profiles of the B. longum strain were determined using the “disc susceptibility” assay. Cultures were grown in the appropriate broth medium for 24-48 hours, spread-plated (100 μl) onto agar media, and discs containing known concentrations of the antibiotics were placed onto the agar. Strains were examined for antibiotic sensitivity after 1-2 days incubation at 37° C. under anaerobic conditions. Strains were considered sensitive if zones of inhibition of 1 mm or greater were seen. The minimum inhibitory concentration (MIC) for each antibiotic was independently assessed.

Compound | minimum inhibitory concentration (MIC)
CN[C@H](CC(C)C)C(=O)N[C@H]1C(=O)N[C@@H](CC(N)=O)C(=O)N[C@H]2C(=O)N[C@H]3C(=O)N[C@H](C(=O)N[C@H](C(=O)O)c4cc(O)cc(O)c4-c4cc3ccc4O)[C@H](O)c3ccc(c(Cl)c3)Oc3cc2cc(c3O[C@@H]2O[C@H](CO)[C@@H](O)[C@H](O)[C@H]2O[C@H]2C[C@](C)(N)[C@H](O)[C@H](C)O2)Oc2ccc(cc2Cl)[C@H]1O [vancomycin] | 0.75
CCC[C@@H]1C[C@@H](C(=O)N[C@@H]([C@H]2O[C@H](SC)[C@H](O)[C@@H](O)[C@H]2O)[C@H](C)Cl)N(C)C1 [clindamycin] | 0.032
Cc1ncc([N+](=O)[O-])n1CCO [metronidazole] | > 256
